Values joined by “and” are separate entries in the source; they are usually repeats but may differ in a detail not shown here. Identical values can stand only once.
Legend:
[1] = Quantification of compounds in mice plasma by LC-MS-MS and PK parameters after i.v. injection; assay type: in vivo; conditions: mouse, in vivo, iv, 25 mg/kg
Protocol: Three Balb/C mice (6–8 weeks old) were intravenously injected with 25 mg/kg of strasseriolide D dissolved in 200 µL of vehicle (0.5%HPMC, 0.5% Tween 80 and 0.5% Benzyl alcohol in water). Blood samples were collected by pricking the […] on the leg of each mouse at time points 1.5 (T 1.5 h), 5 (T 5 h) and 24 h (T 24 h). From the harvested blood, 50 µL plasma were prepared for all the samples and stored at -80 °C until needed. A previously developed LC–MS–MS method (see supporting information) was used to determine the plasma concentration of strasseriolide D as described below.
Ten millimolar (10 mM) DMSO stocks of strasseriolide D (the test compound) and strasseriolide A (used as internal standard,) were prepared. From the strasseriolide D stock, a 59.7 µM (27,000 ppb) working concentration was made in DMSO and an aliquot of this was serially diluted (½) in reconstitution solution (1:1 of acetonitrile: H2O with 0.1% formic acid) to create a six-point calibration curve in triplicate. Three different quality control (QC) concentrations of strasseriolide D at 59.7, 0.74, and 0.25 µM (i.e. 27,000 ppb, 333 ppb and 111 ppb) were also prepared in duplicate. From the strasseriolide A (internal standard) stock, a 6.2 µM (2700 ppb) working concentration was prepared in DMSO.
Blank mouse plasma (prepared from non-injected mouse) was retrieved from the freezer (− 80 °C) and kept on ice to thaw. The sample was vortexed adequately and 15 µL aliquots transferred into 0.7 mL Eppendorf tubes after which 35 µL of Milli-Q water were added and vortexed. Triplicate sets of the diluted plasma were then respectively spiked with 2 uL of each concentration of the calibration curves of strasseriolide D. Another triplicate set of the diluted plasma was spiked with 2 µL of each concentration of the standard QC solutions. All the above samples were also spiked with 2 µL of strasseriolide A (the internal standard)). To serve as blank samples, a fresh triplicate set of diluted plasma were spiked with 4 µL of DMSO. Non-matrix samples were also prepared by spiking 100 µL aliquots of reconstitution solution with 2 µL of the standard QC solutions and 2 µL of internal standard.
Fifteen microlitres (15 µL) plasma from the various time points of the strasseriolide D-injected mice, were respectively transferred into 0.7 mL Eppendorf tubes. To each sample, 37 µL of Milli-Q water were added, vortexed and spiked with 2 µL of strasseriolide A (internal standard). Two hundred microlitres (200 µL) of ice-cold acetonitrile were added to all of the matrix (plasma-containing) samples and centrifuged at 13,300 rpm for 15 min at 4 °C. Subsequently, 180 µL aliquots were carefully transferred (without disturbing the protein precipitate) from each tube into clean HPLC vials and evaporated to dryness in an EZ2 Genevac at room temperature. The dried samples were then reconstituted in 40 µL of reconstitution solution by vortexing. The samples were placed in an auto-sampler drawer for LC–MS–MS analysis and quantification of strasseriolide D (the test compound) in mice plasma.
Similar sample preparation and LC–MS–MS analysis were respectively performed for mice intravenously injected with strasseriolides A and C as test compounds and mice blood samples collected at 30 min (T 30 M), 2 h (T 2 h), 6 h (T 6 h) and 24 h (T 24 h). […] For strasseriolides A, B and C as test compounds; strasseriolides C, D and B were respectively used as internal standards. After LC–MS–MS analysis, the plasma concentration of compound vs. time data was determined for each strasseriolide.
116 Table S2. QC table used to calculate the precision and accuracy of the method.
Compound Expected No. Experimental STD % %
conc. in values mean conc. deviation CV Accuracy
118 (5) The mean recovery rate for the test compound (strasseriolide B) – this was calculated
119 to be 29 % by comparing the plasma QC peak area ratios at the established retention time […]

[2] = test system: Plasmodium falciparum strain 3D7 whole parasites; parameters: method as in PMID 32808790; conditions: in vitro, read-out: IC50 against Plasmodium falciparum strain 3D7; cited from earlier work
[3] = Solubility in the formulation vehicle; assay type: physicochemical; conditions: at 25 mg/Kg dosage, about 5.53 mM in 200 µL vehicle; preliminary unpublished data
[4] = Balb/C, Calc. Conc. in plasma, individual mice
[5] = Balb/C, T1/2 (apparent terminal elimination half-life)

Row | Compound | AUC 0-t/0-inf_obs ([1]; Balb/C) | AUC(0-inf) ([1]; Balb/C) | C0 ([1]; Balb/C) | Clast_obs/Cmax ([1]; Balb/C) | Cmax ([1]; Balb/C) | MRT ([1]; Balb/C) [h] | MRT inf ([1]; Balb/C) [h] | Tmax ([1]; Balb/C) [h] | Vss_obs ([1]; Balb/C) | Vz_obs (plasma distribution volume) ([1]; Balb/C) [L/kg] | k el ([1]; Balb/C) [s⁻¹] | AUC(0-t) ([1]; Balb/C, AUC 0-t) | AUC(0-t) ([1]; Balb/C, AUC0−t) [µM·h] | concentration at 24 h ([1]; Balb/C, Ave. Conc. in plasma) [nM] | concentration at 24 h [1, 4] | concentration at 24 h ([1]; Balb/C, Plasma Conc. @T24 h) [nM] | half-life [1, 5] [h] | half-life ([1]; Balb/C, t1/2) [h] | Cl_obs [1] | IC50 [2] [nM] | also measured
1 | C/C1=C\[C@H](C)C(=O)C[C@@H](O)/C(C)=C/[C@H](C)C[C@@H](C)CC[C@@H]([C@@H](C)C(=O)O)OC(=O)[C@@H](C)C1 [Strasseriolide C, strasseriolide C] | 0.9595 | 359 ng·h/mL and 0.798 µM·h | 203 ng/mL and 452 nM | 0.01432 | 111 ng/mL and 246 nM | 4.7 | 4.71 | 0.5 | 0.3281 (mg/kg)/(ng/ml) | 636.8 | 3.04e-05 | 345 ng·h/mL and 0.766 µM·h | 0.766 | 3.54 | 2.04 ng/mL and 4.53 nM | 3.5 ± 0.9 | 6.3 | 6.34 | 0.06959 (mg/kg)/(ng/ml)/h | 123 | concentration at 0.5 h ([1]; Balb/C, Ave. Conc. in plasma): 246 nM; concentration at 2 h ([1]; Balb/C, Ave. Conc. in plasma): 40 nM; concentration at 6 h ([1]; Balb/C, Ave. Conc. in plasma): 24 nM; concentration at 0.5 h [1, 4]: 122 ng/mL and 271 nM; concentration at 2 h [1, 4]: 20.7 ng/mL and 46 nM; concentration at 6 h [1, 4]: 11.4 ng/mL and 23.1 nM
2 | C/C1=C\[C@H](C)[C@@H](O)C[C@@H](O)/C(C)=C/[C@H](C)C[C@@H](C)CC[C@@H]([C@@H](C)C(=O)O)OC(=O)[C@@H](C)C1 [Strasseriolide D, strasseriolide D] | 0.8996 | 5050 ng·h/mL and 11.2 µM·h | 929 ng/mL and 2.06 µM | 0.08582 | 564 ng/mL and 1.25 µM | 8 | 8.02 | 1.5 | 0.03969 (mg/kg)/(ng/ml) | 51.9 | 2.65e-05 | 10.1 µM·h and 4550 ng·h/mL | 10.1 | 107 | 49.2 ng/mL and 109 nM | 107 ± 5 | 7.3 | 7.27 | 0.004946 (mg/kg)/(ng/ml)/h | 128 | concentration at 1.5 h ([1]; Balb/C, Ave. Conc. in plasma): 1250 nM; concentration at 5 h ([1]; Balb/C, Ave. Conc. in plasma): 389 nM; concentration at 5 h [1, 4]: 168 ng/mL and 431 nM; soluble in the formulation vehicle [3]: 35%

Source: article PMC8647499, “Preclinical evaluation of strasseriolides A–D, potent antiplasmodial macrolides isolated from Strasseria geniculata CF-247,251” (Malaria Journal, 2021)
